Assay results published in article PMC6400287 (Cell reports, 2018).

Biological target: T1, REV-ERBα (Homo sapiens, UniProt P20393)
T1 sequence (P20393 1-614): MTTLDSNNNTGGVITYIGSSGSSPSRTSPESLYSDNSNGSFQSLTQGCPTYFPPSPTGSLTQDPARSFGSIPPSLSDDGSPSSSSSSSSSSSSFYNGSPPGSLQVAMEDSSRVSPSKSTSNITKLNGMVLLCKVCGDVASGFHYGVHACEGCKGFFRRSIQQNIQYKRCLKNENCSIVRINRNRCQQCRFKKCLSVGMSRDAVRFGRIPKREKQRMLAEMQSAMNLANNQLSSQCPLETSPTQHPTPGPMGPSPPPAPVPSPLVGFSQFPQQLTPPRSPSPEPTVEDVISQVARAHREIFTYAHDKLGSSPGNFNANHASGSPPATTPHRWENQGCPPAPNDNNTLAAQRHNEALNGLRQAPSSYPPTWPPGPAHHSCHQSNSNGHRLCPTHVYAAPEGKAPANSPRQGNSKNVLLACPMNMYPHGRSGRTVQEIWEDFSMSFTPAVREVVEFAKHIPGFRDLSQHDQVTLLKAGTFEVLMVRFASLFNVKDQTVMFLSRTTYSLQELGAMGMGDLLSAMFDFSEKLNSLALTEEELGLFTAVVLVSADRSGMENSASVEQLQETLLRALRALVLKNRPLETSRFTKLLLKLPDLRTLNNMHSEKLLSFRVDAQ
Assay: cotransfection Il17a+CNS5 luciferase reporter assay in HEK293 cells
Type: cell-based

CCOC(=O)N1CCC(CN(Cc2ccc(Cl)cc2)Cc2ccc([N+](=O)[O-])s2)C1 (stereo not shown) [SR9009]
cotransfection Il17a+CNS5 luciferase reporter assay in HEK293 cells: Both SR9009 and SR12418 dose-dependently inhibited Il17a lucif-erase activity at REV-ERBα and REV-ERBβ
